Assay results reported in ChEMBL document CHEMBL4483862, “Open-source discovery of chemical leads for next-generation chemoprotective antimalarials” (2018).

Test system: Plasmodium berghei
Assay: Luciferase/luciferin-expressing antifolate-resistant parasites were used to infect a culture of HepG2 cells that were pre-incubated with compounds. Infected hepatocytes emit light due to the luciferase reaction. Assay results are presented as the percent inhibition of light emission compared to control. […]
Type: functional
Conditions: sporozoite; for IC90: read-out: LUCIFERASE INFECTION ASSAY - IC90
[1] = read-out: LUCIFERASE INFECTION ASSAY - IC50

SMILES | IC90 [µM] | IC50 [1] [µM] | also measured
Cn1c(=O)c2ccc(C(=O)Nc3cccc(C(=O)Nc4cccc(C(F)(F)F)c4)c3)nc2n(C)c1=O | > 10 | – | IC50 (PBLUC_HILL_SLOPE 3.03, PBLUC_R_SQUARED 0.059, read-out: LUCIFERASE INFECTION ASSAY - IC50): 6.54 µM
O=C(NC1CC1)c1ccc(CN(C2CC2)S(=O)(=O)c2ccc3c(c2)OCCCO3)cc1 | 5.38 | – | IC50 (PBLUC_HILL_SLOPE 2.85, PBLUC_R_SQUARED 0.458, read-out: LUCIFERASE INFECTION ASSAY - IC50): 2.49 µM
CC(C)Sc1ncccc1C(=O)N1CCN(c2oc(C3CC3)nc2C#N)CC1 | > 10 | > 10 | –
COc1ccc(/C=C2\N=C(SCC(=O)O)N(Cc3ccccc3)C2=O)cc1 | 0.545 | – | IC50 (PBLUC_HILL_SLOPE 72.9, PBLUC_R_SQUARED 0.433, read-out: LUCIFERASE INFECTION ASSAY - IC50): 0.529 µM
CCOc1cccc(-c2cn3c(-c4ccsc4)cnc3cn2)c1 | 9.69 | 5.53 | –
Cc1ccc(Br)c(NS(=O)(=O)c2cccc(C(=O)Nc3cccc4c[nH]nc34)c2)c1 | > 10 | – | IC50 (FFLUC_HILL_SLOPE 12.1, FFLUC_R_SQUARED 0.239, PBLUC_HILL_SLOPE 20.2, PBLUC_R_SQUARED 0.144, read-out: LUCIFERASE INFECTION ASSAY - IC50): 9.98 µM
COC(=O)c1sc(SCCOC(=O)Nc2ccc(OC(F)(F)F)cc2)c2c1CC(C)(C)CC2=O | > 6.38 | – | IC50 (FFLUC_HILL_SLOPE 7.12, FFLUC_R_SQUARED 0.0522, read-out: LUCIFERASE INFECTION ASSAY - IC50): > 6.38 µM
NC(=O)NC(CC(=O)OCC(=O)Nc1ccccc1-c1ccccc1)c1ccc(Cl)cc1 (stereo not drawn) | > 10 | – | IC50 (PBLUC_HILL_SLOPE 5.92, PBLUC_R_SQUARED 0.131, read-out: LUCIFERASE INFECTION ASSAY - IC50): > 10 µM
CN1C(=O)NC(c2ccccc2C(F)(F)F)C(C(=O)c2cccs2)C1(O)C(F)(F)F (stereo not drawn) | > 10 | > 10 | –
CN1CCN(c2ccc(-c3cn4c(-c5ccccc5)cnc4cn3)cn2)CC1 | 7.71 | – | IC50 (PBLUC_HILL_SLOPE 3.35, PBLUC_R_SQUARED 0.57, read-out: LUCIFERASE INFECTION ASSAY - IC50): 4 µM
Cc1ccc2c(c1)nc1n2CN(CCN2CCOCC2)CN1Cc1ccccc1 | 1.1 | – | IC50 (HEPG2TOX_HILL_SLOPE 1.27, HEPG2TOX_R_SQUARED 0.847, PBLUC_HILL_SLOPE 11.9, PBLUC_R_SQUARED 0.472, read-out: LUCIFERASE INFECTION ASSAY - IC50): 0.911 µM
CCOC(=O)c1cnc2cc(Cl)c(F)cc2c1Sc1ccc(Cl)cc1 | > 8.33 | > 8.33 | –
O=C(NC1CCN(Cc2ccccc2)CC1)N1CCN(Cc2ccc(Br)s2)CC1 | 4.35 | – | IC50 (HEPG2TOX_HILL_SLOPE 3.62, HEPG2TOX_R_SQUARED 0.356, PBLUC_HILL_SLOPE 12.1, PBLUC_R_SQUARED 0.388, read-out: LUCIFERASE INFECTION ASSAY - IC50): 3.62 µM
c1ccc(Sc2c(-c3ccccc3)cc3ccccn23)cc1 | 9.91 | – | IC50 (FFLUC_HILL_SLOPE 15.3, FFLUC_R_SQUARED 0.586, PBLUC_HILL_SLOPE 15.5, PBLUC_R_SQUARED 0.389, read-out: LUCIFERASE INFECTION ASSAY - IC50): 8.6 µM
O=C1C=CC(=O)N1c1cccc(N2C(=O)C=CC2=O)c1 | > 12.3 | – | IC50 (PBLUC_HILL_SLOPE 9.05, PBLUC_R_SQUARED 0.121, read-out: LUCIFERASE INFECTION ASSAY - IC50): 11.2 µM
Cc1nn(Cc2ccccc2Cl)c2sc(C(=O)OC(C)c3nc(=O)c4ccccc4[nH]3)cc12 (stereo not drawn) | > 10 | – | IC50 (PBLUC_HILL_SLOPE 18.8, PBLUC_R_SQUARED 0.168, read-out: LUCIFERASE INFECTION ASSAY - IC50): 9.99 µM
O=C(NC1CC1)c1ccc(CN(Cc2csc(-c3ccsc3)n2)Cc2ccco2)cc1 | 1.57 | – | IC50 (PBLUC_HILL_SLOPE 18.2, PBLUC_R_SQUARED 0.577, read-out: LUCIFERASE INFECTION ASSAY - IC50): 1.39 µM
COc1cc(C(=O)NNC(=O)c2ccc(Br)cc2)ccc1OCc1c(C)noc1C | 7.1 | – | IC50 (HEPG2TOX_HILL_SLOPE 1.09, HEPG2TOX_R_SQUARED 0.959, PBLUC_HILL_SLOPE 2.18, PBLUC_R_SQUARED 0.498, read-out: LUCIFERASE INFECTION ASSAY - IC50): 2.59 µM
Cc1nc(C2CC2)nc2sc(-c3nc(-c4cccs4)no3)c(N)c12 | > 10 | – | IC50 (PBLUC_HILL_SLOPE 2.09, PBLUC_R_SQUARED 0.41, read-out: LUCIFERASE INFECTION ASSAY - IC50): 4.67 µM
CCCN(C(=O)c1ccccc1CCc1ccccc1)c1nc(-c2ccc(Cl)cc2Cl)cs1 | > 10 | > 10 | –
CSc1sc(-c2ccnc(SCC(=O)c3ccc(Cl)cc3)n2)c2c1C(=O)CCC2 | > 7.16 | > 7.16 | –
CC(NC(=O)Cc1ccc(-c2ccccc2)cc1)c1cccs1 (stereo not drawn) | 9.4 | – | IC50 (HEPG2TOX_HILL_SLOPE 1.66, HEPG2TOX_R_SQUARED 0.927, PBLUC_HILL_SLOPE 1.26, PBLUC_R_SQUARED 0.823, read-out: LUCIFERASE INFECTION ASSAY - IC50): 1.64 µM

SMILES | IC90 [µM] | IC50 [1] [µM] | also measured
O=[N+]([O-])c1ccc(Nc2nc3ccc(Cl)cc3o2)cc1 | > 10 | > 10 | –
Cc1c(C)n(-c2nc3ccccc3s2)c2ncnc(NCCCN(C)C)c12 | > 8.67 | – | IC50 (HEPG2TOX_HILL_SLOPE 12.8, HEPG2TOX_R_SQUARED 0.501, PBLUC_HILL_SLOPE 2.59, PBLUC_R_SQUARED 0.498, read-out: LUCIFERASE INFECTION ASSAY - IC50): 7.19 µM
O=C1C=CC(=O)N1c1cc(F)ccc1F | > 15.8 | – | IC50 (FFLUC_HILL_SLOPE 1.16, FFLUC_R_SQUARED 0.312, PBLUC_HILL_SLOPE 23.3, PBLUC_R_SQUARED 0.503, read-out: LUCIFERASE INFECTION ASSAY - IC50): 15.2 µM
O=C(Cc1csc(Cc2ccccc2)n1)N1CCc2ccc(O)cc2C1 | > 10 | – | IC50 (PBLUC_HILL_SLOPE 3.03, PBLUC_R_SQUARED 0.78, read-out: LUCIFERASE INFECTION ASSAY - IC50): 6.09 µM
Oc1ccc(Br)c(/C=C/c2ccc3cccc(O)c3n2)c1 | > 9.64 | – | IC50 (HEPG2TOX_HILL_SLOPE 7.26, HEPG2TOX_R_SQUARED 0.426, read-out: LUCIFERASE INFECTION ASSAY - IC50): > 9.64 µM
CN(C)S(=O)(=O)c1ccc2oc(SCC(=O)Nc3cc(C(C)(C)C)no3)nc2c1 | 3.96 | – | IC50 (HEPG2TOX_HILL_SLOPE 11.6, HEPG2TOX_R_SQUARED 0.793, PBLUC_HILL_SLOPE 13.5, PBLUC_R_SQUARED 0.437, read-out: LUCIFERASE INFECTION ASSAY - IC50): 3.36 µM
COc1cc([N+](=O)[O-])ccc1NC(=O)CN1CCc2ccccc2C1 | > 10 | > 10 | –
COc1ccc(Cn2nc(-c3ccccc3)cc2-c2ccccc2O)cc1 | 1.33 | – | IC50 (HEPG2TOX_HILL_SLOPE 8.58, HEPG2TOX_R_SQUARED 0.567, PBLUC_HILL_SLOPE 13.6, PBLUC_R_SQUARED 0.554, read-out: LUCIFERASE INFECTION ASSAY - IC50): 1.13 µM
c1ccc(-c2cn3nc(NCc4ccccc4CN4CCOCC4)sc3n2)cc1 | > 10 | 1.28 | –
COc1cccc(Nc2nccc3nc(-c4cccc(OC(F)(F)F)c4)[nH]c23)c1 | > 10 | – | IC50 (PBLUC_HILL_SLOPE 2.87, PBLUC_R_SQUARED 0.483, read-out: LUCIFERASE INFECTION ASSAY - IC50): 5.1 µM
N#Cc1ncn(CC(=O)NCC2(N3CCOCC3)CCCCC2)n1 | > 10 | – | IC50 (HEPG2TOX_HILL_SLOPE 0.0925, HEPG2TOX_R_SQUARED 0.157, read-out: LUCIFERASE INFECTION ASSAY - IC50): > 10 µM
CSc1ccc(C=C2C(=O)OC(C)(C)OC2=O)s1 | > 11.6 | – | IC50 (HEPG2TOX_HILL_SLOPE 0.602, HEPG2TOX_R_SQUARED 0.801, PBLUC_HILL_SLOPE 0.853, PBLUC_R_SQUARED 0.0835, read-out: LUCIFERASE INFECTION ASSAY - IC50): > 11.6 µM
Cc1nc(Sc2nnnn2C)c2c3c(sc2n1)CCC3 | 4.17 | – | IC50 (HEPG2TOX_HILL_SLOPE 11.4, HEPG2TOX_R_SQUARED 0.852, PBLUC_HILL_SLOPE 13, PBLUC_R_SQUARED 0.536, read-out: LUCIFERASE INFECTION ASSAY - IC50): 3.52 µM
O=C(NCCCC(=O)N1CCC(c2ccc(O)cc2)CC1)c1ccsc1 | > 10 | > 10 | –
CCCC(/N=C/c1cc(Cl)ccc1O)/N=C/c1cc(Cl)ccc1O | > 9.03 | > 9.03 | –
C/C(=N\NC(=O)c1ccc(N/N=C(\C)c2ccccc2Br)cc1)c1ccccc1Br | > 10 | > 10 | –
COc1ccc(CNCC(O)COc2ccc(C(C)(C)C)cc2C)cc1OC (stereo not drawn) | 10 | – | IC50 (HEPG2TOX_HILL_SLOPE 9.88, HEPG2TOX_R_SQUARED 0.866, PBLUC_HILL_SLOPE 15, PBLUC_R_SQUARED 0.0695, read-out: LUCIFERASE INFECTION ASSAY - IC50): 8.63 µM
CC(C)Cn1c(-c2cccs2)nc2c(c(=O)c3ccccc3n2C)c1=O | 8.59 | – | IC50 (PBLUC_HILL_SLOPE 2.62, PBLUC_R_SQUARED 0.237, read-out: LUCIFERASE INFECTION ASSAY - IC50): 3.71 µM
Cc1ccc2c(c1)C1CN(C)CCC1N2C(=O)CCCOc1ccc(Cl)cc1Cl (stereo not drawn) | > 10 | > 10 | –
CN(C)c1ccc(CNCCC(c2ccc(F)cc2)c2ccco2)cc1 (stereo not drawn) | 1.83 | – | IC50 (HEPG2TOX_HILL_SLOPE 13.3, HEPG2TOX_R_SQUARED 0.508, PBLUC_HILL_SLOPE 4.7, PBLUC_R_SQUARED 0.649, read-out: LUCIFERASE INFECTION ASSAY - IC50): 1.15 µM
Cc1c(C(=O)OCc2ccccc2C(F)(F)F)sc2ncn(C)c(=O)c12 | > 10 | 8.3 | –
FC(F)Oc1ccccc1/C=N/n1c(-c2ccc3c(c2)OCCO3)cs/c1=N\CC1CCCO1 (stereo not drawn) | > 10 | > 10 | –
